Type in all cases: in vivo
Experiment [1] relates to Alopecurus myosuroides (ALOMY). Nature of the experiment: Pre-emergence herbicidal glasshouse test on Alopecurus myosuroides. Particulars: pre-emergence; 1000 g/h; evaluated after 13 days. An outline of the steps: (§1)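 Scoring scale: 5=80-100%, 4=60-79%, 3=40-59%, 2=20-39%, 1=0-19% damage, assessed on day 13. Compound sprayed at 1000 g/h on soil-grown plants (day 1 pre-, day 8 post-emergence) kept at 24/16 °C, 14 h light.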

The subject of experiment [2] is Setaria faberi (SETFA). Nature of the experiment: Pre-emergence herbicidal glasshouse test on Setaria faberi. Particulars: pre-emergence; 1000 g/h; evaluated after 13 days. An outline of the steps:
as §1

The subject of experiment [3] is Echinochloa crus-galli (ECHCG). Nature of the experiment: Pre-emergence herbicidal glasshouse test on Echinochloa crus-galli. To be noted: pre-emergence; 1000 g/h; evaluated after 13 days. An outline of the steps: as §1
For experiment [4], the system named is Solanum nigrum (SOLNI). Description: Pre-emergence herbicidal glasshouse test on Solanum nigrum. To be noted: pre-emergence; 1000 g/h; evaluated after 13 days. An outline of the steps:
as §1

In experiment [5] the test system is Amaranthus retoflexus (AMARE). Description: Pre-emergence herbicidal glasshouse test on Amaranthus retoflexus. To be noted: pre-emergence; 1000 g/h; evaluated after 13 days. Summed up:
as §1

Experiment [6] concerns Ipomoea hederacea (IPOHE). Nature of the experiment: Pre-emergence herbicidal glasshouse test on Ipomoea hederacea. To be noted: pre-emergence; 1000 g/h; evaluated after 13 days. Summed up: as §1
For experiment [7], the system named is Alopecurus myosuroides (ALOMY). Nature of the experiment: Post-emergence herbicidal glasshouse test on Alopecurus myosuroides. Particulars: post-emergence; 1000 g/h; evaluated after 13 days. An outline of the steps: as §1
The test system of experiment [8] is Setaria faberi (SETFA). Description: Post-emergence herbicidal glasshouse test on Setaria faberi. To be noted: post-emergence; 1000 g/h; evaluated after 13 days. An outline of the steps:
as §1

The test system of experiment [9] is Echinochloa crus-galli (ECHCG). Description: Post-emergence herbicidal glasshouse test on Echinochloa crus-galli. To be noted: post-emergence; 1000 g/h; evaluated after 13 days. Summed up:
as §1

The subject of experiment [10] is Solanum nigrum (SOLNI). Nature of the experiment: Post-emergence herbicidal glasshouse test on Solanum nigrum. Particulars: post-emergence; 1000 g/h; evaluated after 13 days. Summed up:
as §1

In experiment [11] the test system is Amaranthus retoflexus (AMARE). Description: Post-emergence herbicidal glasshouse test on Amaranthus retoflexus. Particulars: post-emergence; 1000 g/h; evaluated after 13 days. Summed up:
as §1

For experiment [12], the system named is Ipomoea hederacea (IPOHE). Description: Post-emergence herbicidal glasshouse test on Ipomoea hederacea. To be noted: post-emergence; 1000 g/h; evaluated after 13 days. Summed up: as §1

Here are results for four molecules from patent US9693556B2, “Herbicidal pyridazinone derivatives” (SYNGENTA LIMITED, priority 2011, dated 2017).

For `Cn1ncc(-n2ccc(C(F)(F)F)c(-c3cncnc3)c2=O)c(O)c1=O` [Compound 1.024], the “PRE Application ALOMY herbicidal damage (five point scale)” value (shortened to “PRE Application ALOMY herbicidal damage”) in [1] is recorded as 1 (1=0-19% damage). In addition, the “PRE Application SETFA herbicidal damage (five point scale)” value (shortened to “PRE Application SETFA herbicidal damage”) with Setaria faberi (SETFA) [2] is 1 (1=0-19% damage). Besides, in experiment [3], the “PRE Application ECHCG herbicidal damage (five point scale)” value (shortened to “PRE Application ECHCG herbicidal damage”) is recorded as 2 (2=20-39% damage). In addition, in the experiment with Solanum nigrum (SOLNI) [4], the “PRE Application SOLNI herbicidal damage (five point scale)” value (shortened to “PRE Application SOLNI herbicidal damage”) is recorded as 1 (1=0-19% damage). Besides, the “PRE Application AMARE herbicidal damage (five point scale)” value (shortened to “PRE Application AMARE herbicidal damage”) in experiment [5] was 5 (5=80-100% damage). Also, the “PRE Application IPOHE herbicidal damage (five point scale)” value (shortened to “PRE Application IPOHE herbicidal damage”) in [6] is reported as 4 (4=60-79% damage). Besides, in [7], the “POST Application ALOMY herbicidal damage (five point scale)” value (shortened to “POST Application ALOMY herbicidal damage”) is given as 1 (1=0-19% damage). Also, in the experiment on Setaria faberi (SETFA) [8], the “POST Application SETFA herbicidal damage (five point scale)” value (“POST Application SETFA herbicidal damage” below) is on record as 3 (3=40-59% damage). In addition, the “POST Application ECHCG herbicidal damage (five point scale)” value (from here on “POST Application ECHCG herbicidal damage”) in experiment [9] was 2 (2=20-39% damage). For the same molecule, in the experiment with Solanum nigrum (SOLNI) [10], the “POST Application SOLNI herbicidal damage (five point scale)” value (shortened to “POST Application SOLNI herbicidal damage”) is given as 5 (5=80-100% damage). Besides, the “POST Application AMARE herbicidal damage (five point scale)” value (“POST Application AMARE herbicidal damage” below) in [11] is recorded as 5 (5=80-100% damage). Moreover, in experiment [12], the “POST Application IPOHE herbicidal damage (five point scale)” value (from here on “POST Application IPOHE herbicidal damage”) was 4 (4=60-79% damage).

In the case of `Cn1ncc(-n2cc(N3CCOCC3)c(C(F)(F)F)cc2=O)c(O)c1=O` [Compound 1.025], the “PRE Application ALOMY herbicidal damage” value in [1] is listed as 1 (1=0-19% damage). In the experiment with Setaria faberi (SETFA) [2], the “PRE Application SETFA herbicidal damage” value is 1 (1=0-19% damage). Further, the “PRE Application ECHCG herbicidal damage” value in [3] was 1 (1=0-19% damage). The “PRE Application SOLNI herbicidal damage” value in the experiment with Solanum nigrum (SOLNI) [4] is 1 (1=0-19% damage). In addition, the “PRE Application AMARE herbicidal damage” value in experiment [5] is given as 1 (1=0-19% damage). For the same molecule, the “PRE Application IPOHE herbicidal damage” value in experiment [6] is listed as 1 (1=0-19% damage). Also, in experiment [7], the “POST Application ALOMY herbicidal damage” value is reported as 1 (1=0-19% damage). Also, the “POST Application SETFA herbicidal damage” value in the experiment on Setaria faberi (SETFA) [8] is on record as 1 (1=0-19% damage). Besides, the “POST Application ECHCG herbicidal damage” value in experiment [9] is listed as 1 (1=0-19% damage). The “POST Application SOLNI herbicidal damage” value with Solanum nigrum (SOLNI) [10] was 4 (4=60-79% damage). Moreover, the “POST Application AMARE herbicidal damage” value in experiment [11] was 2 (2=20-39% damage). For the same molecule, in experiment [12], the “POST Application IPOHE herbicidal damage” value is reported as 2 (2=20-39% damage).

`Cn1ncc(-n2ccc(C(F)(F)F)c(N3CCOCC3)c2=O)c(O)c1=O` [Compound 1.026]: the “PRE Application ALOMY herbicidal damage” value in experiment [1] is listed as 5 (5=80-100% damage). For the same molecule, in the experiment with Setaria faberi (SETFA) [2], the “PRE Application SETFA herbicidal damage” value is on record as 5 (5=80-100% damage). Besides, the “PRE Application ECHCG herbicidal damage” value in [3] was 5 (5=80-100% damage). Moreover, in the experiment with Solanum nigrum (SOLNI) [4], the “PRE Application SOLNI herbicidal damage” value is reported as 5 (5=80-100% damage). The “PRE Application AMARE herbicidal damage” value in experiment [5] is 5 (5=80-100% damage). The “PRE Application IPOHE herbicidal damage” value in [6] was 5 (5=80-100% damage). Moreover, in experiment [7], the “POST Application ALOMY herbicidal damage” value is given as 5 (5=80-100% damage). Further, the “POST Application SETFA herbicidal damage” value with Setaria faberi (SETFA) [8] is 5 (5=80-100% damage). Moreover, in experiment [9], the “POST Application ECHCG herbicidal damage” value was 5 (5=80-100% damage). Besides, the “POST Application SOLNI herbicidal damage” value with Solanum nigrum (SOLNI) [10] is on record as 5 (5=80-100% damage). Also, the “POST Application AMARE herbicidal damage” value in [11] is 5 (5=80-100% damage). In experiment [12], the “POST Application IPOHE herbicidal damage” value was 5 (5=80-100% damage).

With `CSc1ccn(-c2cnn(C)c(=O)c2O)c(=O)c1` [Compound 1.027], the “PRE Application ALOMY herbicidal damage” value in experiment [1] is 1 (1=0-19% damage). Moreover, in the experiment on Setaria faberi (SETFA) [2], the “PRE Application SETFA herbicidal damage” value was 3 (3=40-59% damage). Also, the “PRE Application ECHCG herbicidal damage” value in experiment [3] is given as 5 (5=80-100% damage). Moreover, the “PRE Application SOLNI herbicidal damage” value in the experiment with Solanum nigrum (SOLNI) [4] was 4 (4=60-79% damage). Also, in [5], the “PRE Application AMARE herbicidal damage” value is on record as 5 (5=80-100% damage). Further, the “PRE Application IPOHE herbicidal damage” value in [6] is on record as 1 (1=0-19% damage). For the same molecule, the “POST Application ALOMY herbicidal damage” value in experiment [7] is 1 (1=0-19% damage). Besides, in the experiment with Setaria faberi (SETFA) [8], the “POST Application SETFA herbicidal damage” value is 5 (5=80-100% damage). In addition, in experiment [9], the “POST Application ECHCG herbicidal damage” value is reported as 5 (5=80-100% damage). Moreover, in the experiment on Solanum nigrum (SOLNI) [10], the “POST Application SOLNI herbicidal damage” value is recorded as 5 (5=80-100% damage). Besides, in [11], the “POST Application AMARE herbicidal damage” value is recorded as 5 (5=80-100% damage). The “POST Application IPOHE herbicidal damage” value in [12] is on record as 5 (5=80-100% damage).
